Test results taken from US9434711B2 (Janssen Pharmaceutica, NV, priority 2007, dated 2016).
Like-named read-outs stand apart in the source and are kept apart here. Blank lines part the entries; values can stand above or below the molecule they belong to.

Experiments:
canine TRPM8 = canine TRPM8 (Canis lupus familiaris, UniProt Q1A7N1); experiment: In Vitro Canine TRPM8 Functional Assay (Ca2+ fluorescence, icilin activation); type: cell-based; conditions: for IC50: HEK293 cells stably expressing canine TRPM8, icilin activation, eight-point dose-response, read-out: IC50; for inhibition at 0.2 µM: compound at 0.2 μM, canine TRPM8, icilin activation, read-out: % Inh @ 0.2
Method in brief: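 Cells (HEK293, stable canine TRPM8) are seeded 24 h before assay. They are then dye-loaded with Calcium 3 at 37 °C followed by room temperature. Compound is added and monitored for 5 min, after which icilin (~80% maximal response) is added.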

human TRPM8 = human TRPM8 (Homo sapiens (Human), UniProt Q7Z2W7); experiment: In Vitro Human TRPM8 Functional Assay (Ca2+ fluorescence, icilin EC80); type: cell-based; conditions: read-out: hTRPM8 IC50
Protocol: HEK293 cells are routinely grown as monolayer in Dulbecco's minimum essential medium supplemented with 10% FBS, 1 mM L-glutamine, 100 units/mL penicillin and 100 ug/mL streptomycin. Cells are maintained in 5% CO2 at 37° C.
For functional expression of TRPM8, the full-length cDNA encoding human and rat TRPM8 are subcloned into pCI-NEO mammalian expression vectors. The expression constructs are transiently transfected into HEK293 cells according to the FuGENE 6 Transfection Reagent® (ROCHE) instructions. Within twenty-four hours, transiently transfected cells are harvested and either seeded directly into assay plate or cryopreserved for future usage. […]
Maximal fluorescence intensity (FI) achieved upon addition of icilin is exported from the FDSS and further analyzed using GraphPad Prism 3.02 (Graph Pad Software Inc., CA, U.S.A.) where data is normalized to percent of maximal response. The dose response curves from the average of quadruplicate wells for each data point are analyzed by using nonlinear regression of either sigmoidal dose response or sigmoidal dose response (variable slope). Finally, the IC50 values are calculated with the best-fit dose curve determined by Prism.

Male Sprague Dawley rats [1] = experiment: Inhibition of Icilin-Induced "Wet-Dog" Shakes in Rats; type: in vivo, rat; conditions: Rattus norvegicus, po, HPbCD, Na salt form
male Sprague-Dawley rats = experiment: Rat Carrageenan-Induced Radiant Heat Hypersensitivity; type: in vivo; conditions: dose 30 p.o., HPbCD, Na salt form
Protocol: Intraplantar injection of carrageenan into the hind paw of rats causes a robust acute inflammatory response characterized by reddening, swelling and hypersensitivity of the paw to thermal and mechanical stimuli typically peaking 3-6 hours following application and subsiding over the 12-24 hours.
To assess the effect of test compounds of the formula (I) on inflammatory hyperalgesia radiant heat response latencies were evaluated 3 hours following intraplantar carrageenan (Lambda, Type IV, 200 uL) injection into a single hind paw in male Sprague-Dawley rats. The test compound was administered either 2 hours prior to or 1 hour following carrageenan injection. The intent was to determine whether the compound would prevent or retard the hypersensitivity associated with this inflammogen. Baseline thermal response latencies were determined prior to any treatment and again 3 hours after carrageenan injection. Percent reversal of hyperalgesia relative to vehicle treatment (% R) was calculated for both compound treatment paradigms according to the following formula and is depicted in Table 8: % R=(Post compound latency−Post vehicle latency)/((Baseline latency−Post vehicle latency)×100%

Male Sprague Dawley rats [2] = experiment: Chronic Constriction Injury (CCI)-Induced Model of Neuropathic Pain, Acetone-Induced Hypersensitivity; type: in vivo, rat; conditions: Rattus norvegicus, po, Na salt form; for inhibition in vivo at 3 mg/kg: 3 mg/kg p.o.; for inhibition in vivo at 10 mg/kg: 10 mg/kg p.o.; for inhibition in vivo at 17.8 mg/kg: 17.8 mg/kg p.o.; for inhibition in vivo at 30 mg/kg: 30 mg/kg p.o.; for inhibition in vivo at 56 mg/kg: 56 mg/kg p.o.
[3] = treatment 1 hour relative to Cg
[4] = treatment −2 hours relative to Cg
[5] = 4 h, vehicle HPbCD, Water, pretreatment 4 hr, read-out: Percent Inhibition
[6] = 4 h, HPbCD, pretreatment 4 hr, read-out: Percent Inhibition
[7] = 4 h, Water, pretreatment 4 hr, read-out: Percent Inhibition

canine TRPM8, sequence (Q1A7N1 1-1104): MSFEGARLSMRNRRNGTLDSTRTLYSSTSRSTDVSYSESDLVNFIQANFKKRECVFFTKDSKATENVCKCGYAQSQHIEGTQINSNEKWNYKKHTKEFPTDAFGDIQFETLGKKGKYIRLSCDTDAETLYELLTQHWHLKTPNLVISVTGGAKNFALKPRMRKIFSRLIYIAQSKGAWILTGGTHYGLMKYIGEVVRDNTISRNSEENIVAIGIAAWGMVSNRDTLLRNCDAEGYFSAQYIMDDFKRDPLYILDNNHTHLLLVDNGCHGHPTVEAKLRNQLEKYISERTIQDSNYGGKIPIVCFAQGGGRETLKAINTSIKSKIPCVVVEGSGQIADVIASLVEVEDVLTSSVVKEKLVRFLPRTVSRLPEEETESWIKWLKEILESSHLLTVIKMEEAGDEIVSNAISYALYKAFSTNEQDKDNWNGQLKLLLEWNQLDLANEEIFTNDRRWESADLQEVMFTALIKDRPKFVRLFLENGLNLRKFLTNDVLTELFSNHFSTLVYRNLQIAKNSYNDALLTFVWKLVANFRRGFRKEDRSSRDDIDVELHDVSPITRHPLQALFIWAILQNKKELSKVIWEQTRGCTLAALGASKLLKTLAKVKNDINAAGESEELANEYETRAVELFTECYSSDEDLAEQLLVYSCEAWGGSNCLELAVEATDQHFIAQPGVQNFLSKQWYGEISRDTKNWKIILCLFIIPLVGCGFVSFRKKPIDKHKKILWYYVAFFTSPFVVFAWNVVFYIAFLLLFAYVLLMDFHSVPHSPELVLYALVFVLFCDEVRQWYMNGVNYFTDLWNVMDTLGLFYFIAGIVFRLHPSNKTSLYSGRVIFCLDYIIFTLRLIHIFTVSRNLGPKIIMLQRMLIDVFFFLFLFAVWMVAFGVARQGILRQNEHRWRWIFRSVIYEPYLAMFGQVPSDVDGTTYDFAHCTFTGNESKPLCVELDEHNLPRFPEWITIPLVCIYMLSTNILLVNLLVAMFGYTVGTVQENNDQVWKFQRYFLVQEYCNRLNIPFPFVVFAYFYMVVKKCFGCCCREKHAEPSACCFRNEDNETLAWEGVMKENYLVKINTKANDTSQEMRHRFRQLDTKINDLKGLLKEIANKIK
human TRPM8, sequence (Q7Z2W7 whole entry): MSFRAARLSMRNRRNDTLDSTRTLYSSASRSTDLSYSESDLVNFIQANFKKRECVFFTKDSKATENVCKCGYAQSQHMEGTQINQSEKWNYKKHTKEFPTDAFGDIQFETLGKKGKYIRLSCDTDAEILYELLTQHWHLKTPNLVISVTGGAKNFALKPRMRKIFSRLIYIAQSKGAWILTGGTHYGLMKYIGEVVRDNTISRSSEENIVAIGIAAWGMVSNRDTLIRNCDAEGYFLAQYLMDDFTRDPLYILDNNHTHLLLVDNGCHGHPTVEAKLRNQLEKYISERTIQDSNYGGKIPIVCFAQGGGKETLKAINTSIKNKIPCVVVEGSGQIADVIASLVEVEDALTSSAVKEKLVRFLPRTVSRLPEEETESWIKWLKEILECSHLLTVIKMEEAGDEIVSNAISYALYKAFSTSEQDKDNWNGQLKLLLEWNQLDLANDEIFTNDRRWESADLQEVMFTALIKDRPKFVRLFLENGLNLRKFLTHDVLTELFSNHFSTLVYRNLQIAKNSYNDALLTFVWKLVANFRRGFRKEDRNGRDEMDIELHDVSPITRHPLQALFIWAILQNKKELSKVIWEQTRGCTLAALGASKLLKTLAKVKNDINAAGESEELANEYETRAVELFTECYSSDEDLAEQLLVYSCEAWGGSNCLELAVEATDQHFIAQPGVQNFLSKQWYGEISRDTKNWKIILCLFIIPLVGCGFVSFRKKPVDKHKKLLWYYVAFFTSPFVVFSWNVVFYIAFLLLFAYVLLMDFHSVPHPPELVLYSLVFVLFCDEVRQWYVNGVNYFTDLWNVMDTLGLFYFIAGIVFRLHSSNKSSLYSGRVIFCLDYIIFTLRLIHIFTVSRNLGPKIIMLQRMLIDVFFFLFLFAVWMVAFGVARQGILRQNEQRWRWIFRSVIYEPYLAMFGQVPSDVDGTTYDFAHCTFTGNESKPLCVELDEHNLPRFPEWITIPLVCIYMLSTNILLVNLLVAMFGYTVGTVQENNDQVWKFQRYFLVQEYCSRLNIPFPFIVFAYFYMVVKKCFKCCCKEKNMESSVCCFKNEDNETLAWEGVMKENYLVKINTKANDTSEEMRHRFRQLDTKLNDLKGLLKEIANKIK

IC50 (canine TRPM8): 0.8 nM
inhibition at 0.2 µM (canine TRPM8): 102%
IC50 (human TRPM8; Freshly transfected cells): 4 nM
SMILES: Cc1c(N(Cc2ccc(F)c(C(F)(F)F)c2)S(=O)(=O)c2ccc(C(=O)O)cc2)sc2ccccc12 [Compound 306, N-(3-Methyl-benzo[b]thiophen-2-yl)-N-(4-fluoro-3-trifluoromethyl-benzyl)-4-carboxy-benzenesulfonamide]
ED50 (Male Sprague Dawley rats [1]; 1 h, 60 min pre-icilin): 2.5 mg/kg
Percent Reversal, relative to vehicle (male Sprague-Dawley rats; [3]): 100%
Percent Reversal, relative to vehicle (male Sprague-Dawley rats; [4]): 64%
inhibition in vivo at 3 mg/kg (Male Sprague Dawley rats [2]; [5]): 20%
inhibition in vivo at 10 mg/kg (Male Sprague Dawley rats [2]; [5]): 38%
inhibition in vivo at 17.8 mg/kg (Male Sprague Dawley rats [2]; [5]): 57%
inhibition in vivo at 30 mg/kg (Male Sprague Dawley rats [2]; [5]): 68%
inhibition in vivo at 56 mg/kg (Male Sprague Dawley rats [2]; [5]): 77%
inhibition in vivo at 100 mg/kg (Male Sprague Dawley rats [2]; 4 h, 100 mg/kg p.o., vehicle HPbCD, Water, pretreatment 4 hr, read-out: Percent Inhibition): 77%
inhibition in vivo at 30 mg/kg (Male Sprague Dawley rats [2]; 6 h, HPbCD, pretreatment 6 hr, read-out: Percent Inhibition): 69%
ED50 (Male Sprague Dawley rats [2]; vehicle HPbCD, Water, pretreatment 4 hr): 15 mg/kg

IC50 (canine TRPM8): 0.8 nM
inhibition at 0.2 µM (canine TRPM8): 101%
IC50 (human TRPM8; Cryopreserved cells): 1.4 nM
SMILES: Cc1c(N(Cc2ccc(OC(F)(F)F)cc2)S(=O)(=O)c2ccc(C(=O)O)cc2)sc2ccccc12 [Compound 496, N-(3-Methyl-benzo[b]thiophen-2-yl)-N-(4-trifluoromethoxy-benzyl)-4-carboxy-benzenesulfonamide]
ED50 (Male Sprague Dawley rats [1]; 2 h, 120 min pre-icilin): 2.5 mg/kg
Percent Reversal, relative to vehicle (male Sprague-Dawley rats; [3]): 106%
Percent Reversal, relative to vehicle (male Sprague-Dawley rats; [4]): 74%
inhibition in vivo at 30 mg/kg (Male Sprague Dawley rats [2]; 2 h, Water, pretreatment 2 hr, read-out: Percent Inhibition): 74%
inhibition in vivo at 0.3 mg/kg (Male Sprague Dawley rats [2]; 4 h, 0.3 mg/kg p.o., HPbCD, pretreatment 4 hr, read-out: Percent Inhibition): 28%
inhibition in vivo at 1 mg/kg (Male Sprague Dawley rats [2]; 4 h, 1 mg/kg p.o., HPbCD, pretreatment 4 hr, read-out: Percent Inhibition): 32%
inhibition in vivo at 3 mg/kg (Male Sprague Dawley rats [2]; [6]): 23%
inhibition in vivo at 5.6 mg/kg (Male Sprague Dawley rats [2]; 4 h, 5.6 mg/kg p.o., HPbCD, pretreatment 4 hr, read-out: Percent Inhibition): 72%
inhibition in vivo at 10 mg/kg (Male Sprague Dawley rats [2]; [6]): 71%
inhibition in vivo at 10 mg/kg (Male Sprague Dawley rats [2]; [7]): 76%
inhibition in vivo at 17.8 mg/kg (Male Sprague Dawley rats [2]; [7]): 64%
inhibition in vivo at 30 mg/kg (Male Sprague Dawley rats [2]; [7]): 72%
inhibition in vivo at 56 mg/kg (Male Sprague Dawley rats [2]; [7]): 68%
ED50 (Male Sprague Dawley rats [2]; HPbCD, pretreatment 4 hr): 3.5 mg/kg
